Assay results taken from US11697646B2, “Triazole N-linked carbamoyl cyclohexyl acids as LPA antagonists” (BRISTOL-MYERS SQUIBB COMPANY, priority 2017, dated 2023).

The compounds below were run against T1, human LPA1 (Homo sapiens, UniProt Q92633) (assay: LPA1 functional antagonist assay (calcium flux)). Conditions: CHO cells overexpressing human LPA1; calcium flux induced by 10 nM LPA; read-out: hLPA1 IC50.
T1 construct: expressed in transfected cells; host or cells: Chinese hamster ovary (CHO) cells
T1 sequence (Q92633 whole entry): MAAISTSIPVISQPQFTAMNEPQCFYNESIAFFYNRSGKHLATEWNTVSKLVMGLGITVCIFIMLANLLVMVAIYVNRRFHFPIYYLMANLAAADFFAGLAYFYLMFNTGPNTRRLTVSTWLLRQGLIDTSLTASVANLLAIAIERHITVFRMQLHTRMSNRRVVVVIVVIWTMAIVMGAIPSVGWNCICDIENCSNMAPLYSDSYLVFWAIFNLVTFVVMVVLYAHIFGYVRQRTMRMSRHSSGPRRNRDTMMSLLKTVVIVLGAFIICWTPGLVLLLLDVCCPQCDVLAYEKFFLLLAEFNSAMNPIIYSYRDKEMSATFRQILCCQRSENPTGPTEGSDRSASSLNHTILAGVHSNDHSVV
Format: cell-based
Protocol: The effectiveness of compounds of the present invention as LPA1 inhibitors can be determined in an LPA1 functional antagonist assay as follows:
The cells were then equilibrated to room temperature for 30 minutes before the assay. […] IC50 values were determined by fitting data to a 4-parameter logistic equation (GraphPad Prism, San Diego Calif.).
For Cc1nc(-c2nnn(C)c2NC(=O)OCCC2CC2)ccc1O[C@H]1CCC[C@H](C(=O)O)C1 [Example 73, (1S,3S)-3-((6-(5-(((2-cyclopropyl-ethoxy)carbonyl)amino)-1-methyl-1H-1,2,3-triazol-4-yl)-2-methyl-pyridin-3-yl)oxy)cyclohexane-1-carboxylic acid], the IC50 was 11 nM. In the case of Cc1nc(-c2nnn(C)c2CCNC(=O)OCc2ccccc2)ccc1O[C@H]1CCC[C@H](C(=O)O)C1 [Example 106, (1S,3S)-3-((6-(5-(2-(((benzyloxy)carbonyl)amino)ethyl)-1-methyl-1H-1,2,3-triazol-4-yl)-2-methylpyridin-3-yl)oxy)cyclohexane-1-carboxylic acid], the IC50 is reported as 525 nM. Cc1nc(-c2nnn(C)c2CNC(=O)OCc2cc(F)ccc2F)ccc1O[C@H]1CCC[C@H](C(=O)O)C1 [Example 17, (1S,3S)-3-((6-(5-(((((2,5-difluorobenzyl)oxy)carbonyl)amino)methyl)-1-methyl-1H-1,2,3-triazol-4-yl)-2-methylpyridin-3-yl)oxy)cyclohexane-1-carboxylic acid] showed an IC50 of 7 nM. CCCCOC(=O)NCCc1c(-c2ccc(O[C@H]3CCC[C@H](C(=O)O)C3)c(C)n2)nnn1C [Example 107, (1S,3S)-3-((6-(5-(2-((butoxy-carbonyl)amino)ethyl)-1-methyl-1H-1,2,3-triazol-4-yl)-2-methylpyridin-3-yl)oxy)cyclohexane-1-carboxylic acid] was tested, and the IC50 was 1460 nM. With C[C@@H](OC(=O)NCc1c(-c2ccc(O[C@H]3CCC[C@H](C(=O)O)C3)cn2)nnn1C)c1ccccc1 [Example 10, (1S,3S)-3-((6-(1-methyl-5-(((((R)-1-phenylethoxy)carbonyl)amino)methyl)-1H-1,2,3-triazol-4-yl)pyridin-3-yl)oxy)cyclohexane-1-carboxylic acid] the IC50 was 104 nM. Cc1nc(-c2nnn(C)c2CNC(=O)OCC2CCC2)ccc1O[C@H]1CCC[C@H](C(=O)O)C1 [Example 33, (1S,3S)-3-((6-(5-((((cyclobutylmethoxy)carbonyl)amino)methyl)-1-methyl-1H-1,2,3-triazol-4-yl)-2-methylpyridin-3-yl)oxy)cyclohexane-1-carboxylic acid] showed an IC50 of 11 nM. Cc1nc(-c2nnn(C)c2NC(=O)OCC2CC2C)ccc1O[C@H]1CCC[C@H](C(=O)O)C1 (mixture of isomers) [Example 223, (1S,3S)-3((2-methyl-6-(1-methyl-5-((((2-methylcyclopropyl)methoxy)carbonyl)amino)-1H-1,2,3-triazol-4-yl)pyridin-3-yl)oxy)cyclohexane-1-carboxylic acid (mixture of cyclopropyl diastereomers)] gave an IC50 of 52 nM. Cc1nc(-c2nnn(C)c2CNC(=O)NC(C)c2ccccc2)ccc1O[C@H]1CCC[C@H](C(=O)O)C1 (mixture of isomers) [Example 129, (1S,3S)-3-((2-methyl-6-(1-methyl-5-((3-(1-phenylethyl)ureido)methyl)-1H-1,2,3-triazol-4-yl)pyridin-3-yl)oxy)cyclo-hexane-1-carboxylic acid] gave an IC50 of 142 nM. With Cc1nc(-c2nnn(C)c2NC(=O)N[C@H](C)c2ccccc2)ccc1O[C@H]1CCC[C@H](C(=O)O)C1 [Example 136, (1S,3S)-3-((2-methyl-6-(1-methyl-5-(3-((R)-1-phenylethyl)ureido)-1H-1,2,3-triazol-4-yl)pyridin-3-yl)oxy) cyclohexane-1-carboxylic acid] the IC50 was 103 nM. Cc1nc(-c2nnn(C)c2NC(=O)OC(C)(C)C)ccc1O[C@H]1CCC[C@H](C(=O)O)C1 [Example 64, (1S,3S)-3-((6-(5-((tert-butoxycarbonyl)amino)-1-methyl-1H-1,2,3-triazol-4-yl)-2-methylpyridin-3-yl)oxy)cyclohexane-1-carboxylicacid] gave an IC50 of 54 nM. Cc1nc(-c2nnn(C)c2CNC(=O)OCC2(F)CC2)ccc1O[C@H]1CCC[C@H](C(=O)O)C1 [Example 49, (1S,3S)-3-((6-(5-(((((1-fluorocyclopropyl)methoxy)carbonyl)amino)methyl)-1-methyl-1H-1,2,3-triazol-4-yl)-2-methylpyridin-3-yl)oxy)cyclohexane-1-carboxylic acid] gave an IC50 of 602 nM. Work on Cc1nc(-c2nnn(C)c2CNC(=O)OCC(C)CC(F)(F)F)ccc1O[C@H]1CCC[C@H](C(=O)O)C1 (mixture of isomers) [Example 32, (1S,3S)-3-((2-methyl-6-(1-methyl-5-((((4,4,4-trifluoro-2-methylbutoxy)carbonyl)amino)methyl)-1H-1,2,3-triazol-4-yl)pyridin-3-yl)oxy)cyclo-hexane-1-carboxylic acid] yielded an IC50 of 69 nM. Cc1nc(-c2nnn(C)c2CNC(=O)OCC(C)C)ccc1O[C@H]1CCC[C@H](C(=O)O)C1 [Example 25, (1S,3S)-3-((6-(5-(((isobutoxycarbonyl)amino)methyl)-1-methyl-1H-1,2,3-triazol-4-yl)-2-methyl-pyridin-3-yl)oxy)cyclohexane-1-carboxylic acid] showed an IC50 of 51 nM.

Same assay, conditions: human LPA1 functional antagonist assay; read-out: hLPA1 IC50
Cc1nc(-c2nnn(C)c2CNC(=O)OCC2CC2(F)F)ccc1O[C@H]1CCC[C@H](C(=O)O)C1 (mixture of isomers) [Example 180, (1S,3S)-3-((6-(5-(((((2,2-difluoro-cyclopropyl)methoxy)carbonyl)amino)methyl)-1-methyl-1H-1,2,3-triazol-4-yl)-2-methylpyridin-3-yl)oxy)cyclohexane-1-carboxylic acid (diastereomers at cyclopropyl carbon)] showed an IC50 of 53 nM. Cc1nc(-c2nnn(C)c2CNC(=O)O[C@H](C)C(C)C)ccc1O[C@H]1CCC[C@H](C(=O)O)C1 [Example 170, (1S,3S)-3-((2-methyl-6-(1-methyl-5-((((((R)-3-methylbutan-2-yl)oxy)carbonyl)amino)methyl)-1H-1,2,3-triazol-4-yl)pyridin-3-yl)oxy)cyclohexane-1-carboxylic acid] was tested, and the IC50 was 92 nM. With CC[C@H](C)OC(=O)NCc1c(-c2ccc(O[C@H]3CCC[C@H](C(=O)O)C3)c(C)n2)nnn1C [Example 175, (1S,3S)-3-((6-(5-((((S)-sec-butoxy-carbonyl)amino)methyl)-1-methyl-1H-1,2,3-triazol-4-yl)-2-methyl-pyridin-3-yl)oxy)cyclohexane-1-carboxylic acid] the IC50 was 95 nM. Compound CC[C@@H](C)OC(=O)NCc1c(-c2ccc(O[C@H]3CCC[C@H](C(=O)O)C3)c(C)n2)nnn1C [Example 172, (1S,3S)-3-((6-(5-((((R)-sec-butoxycarbonyl)amino)methyl)-1-methyl-1H-1,2,3-triazol-4-yl)-2-methyl-pyridin-3-yl)oxy)cyclohexane-1-carboxylic acid] has an IC50 of 152 nM. In the case of Cc1nc(-c2nnn(C)c2CNC(=O)OCC(C)CC(F)F)ccc1O[C@H]1CCC[C@H](C(=O)O)C1 (stereo partly drawn) [Example 196, (1S,3S)-3-((6-(5-((((4,4-difluoro-2-methylbutoxy)carbonyl)amino)methyl)-1-methyl-1H-1,2,3-triazol-4-yl)-2-methylpyridin-3-yl)oxy)cyclo-hexane-1-carboxylic acid], the IC50 is reported as 83 nM. Compound Cc1nc(-c2nnn(C)c2CNC(=O)OC2CC3(CC3)C2)ccc1O[C@H]1CCC[C@H](C(=O)O)C1 [Example 201, (1S,3S)-3-((2-methyl-6-(1-methyl-5-((((spiro[2.3]hexan-5-yloxy)carbonyl)amino)methyl)-1H-1,2,3-triazol-4-yl)pyridin-3-yl)oxy)cyclohexane-1-carboxylic acid] has an IC50 of 42 nM.
